Reference: ChEMBL document CHEMBL1201861, “Genomics of Drug Sensitity in Cancer screening data, Wellcome Trust Sanger Institute”

Assays:
Experiment in all cases: cells
LB2241-RCC = assay type: functional, cell-based, Homo sapiens; settings: Homo sapiens, LB2241-RCC;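 also: cell viability assay measuring how strongly the cultured human renal carcinoma line is prevented from growing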
Description: SANGER: Inhibition of human LB2241-RCC cell growth in a cell viability assay.

CAS-1 = assay type: functional, cell-based, Homo sapiens; settings: Homo sapiens, CAS-1;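 also: growth inhibition of CAS-1 cells, measured with a cell viability assay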
Description: SANGER: Inhibition of human CAS-1 cell growth in a cell viability assay.

OMC-1 = assay type: functional, cell-based, Homo sapiens; settings: Homo sapiens, OMC-1;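 also: growth inhibition of the OMC-1 cell line, measured by a cell viability assay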
Description: SANGER: Inhibition of human OMC-1 cell growth in a cell viability assay.

SW 962 = assay type: functional, cell-based, Homo sapiens; settings: Homo sapiens, SW 962;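 also: growth inhibition of human SW962 cells, read out by a cell viability assay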
Description: SANGER: Inhibition of human SW962 cell growth in a cell viability assay.

EOL1 = assay type: functional, cell-based, Homo sapiens; settings: Homo sapiens, EOL1;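 also: growth inhibition of EoL-1 cells, read out by a cell viability assay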
Description: SANGER: Inhibition of human EoL-1-cell cell growth in a cell viability assay.

BT-474 = assay type: functional, cell-based, Homo sapiens; settings: Homo sapiens, BT-474
Description: SANGER: Inhibition of human BT-474 cell growth in a cell viability assay.

ES1 = assay type: functional, cell-based, Homo sapiens; settings: Homo sapiens, ES1;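 also: growth inhibition of ES1 cells, read out with a cell viability assay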
Description: SANGER: Inhibition of human ES1 cell growth in a cell viability assay.

SF-126 = assay type: functional, cell-based, Homo sapiens; settings: Homo sapiens, SF-126;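 also: growth inhibition of human SF126 cells, read out with a cell viability assay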
Description: SANGER: Inhibition of human SF126 cell growth in a cell viability assay.

L-363 = assay type: functional, cell-based, Homo sapiens; settings: Homo sapiens, L-363
Description: SANGER: Inhibition of human L-363 cell growth in a cell viability assay.

MOLT-4 = assay type: functional, cell-based, Homo sapiens; settings: Homo sapiens, MOLT-4;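 also: growth inhibition of MOLT-4 cells, determined with a cell viability readout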
Description: SANGER: Inhibition of human MOLT-4 cell growth in a cell viability assay.

SH-4 = assay type: functional, cell-based; settings: Homo sapiens;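 also: growth inhibition of SH-4 cells, read out with a cell viability assay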
Description: SANGER: Inhibition of human SH-4 cell growth in a cell viability assay.

MMAC-SF = assay type: functional, cell-based; settings: Homo sapiens;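 also: growth inhibition of human MMAC-SF cells, read out with a cell viability assay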
Description: SANGER: Inhibition of human MMAC-SF cell growth in a cell viability assay.

SK-MEL-2 = assay type: functional, cell-based, Homo sapiens; settings: Homo sapiens, SK-MEL-2;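 also: growth inhibition of human SK-MEL-2 cells measured with a cell viability assay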
Description: SANGER: Inhibition of human SK-MEL-2 cell growth in a cell viability assay.

SK-LMS-1 = assay type: functional, cell-based, Homo sapiens; settings: Homo sapiens, SK-LMS-1;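 also: growth inhibition of human SK-LMS-1 cells, read out with a cell viability assay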
Description: SANGER: Inhibition of human SK-LMS-1 cell growth in a cell viability assay.

A704 = assay type: functional, cell-based; settings: Homo sapiens;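 also: growth inhibition of human A704 cells, read out with a cell viability assay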
Description: SANGER: Inhibition of human A704 cell growth in a cell viability assay.

SK-PN-DW = assay type: functional, cell-based, Homo sapiens; settings: Homo sapiens, SK-PN-DW;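 also: growth inhibition measured with a viability assay on these cells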
Description: SANGER: Inhibition of human SK-PN-DW cell growth in a cell viability assay.

LB771-HNC = assay type: functional, cell-based; settings: Homo sapiens;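 also: growth inhibition of LB771-HNC human cells, read out with a cell viability assay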
Description: SANGER: Inhibition of human LB771-HNC cell growth in a cell viability assay.

NCI-H2126 = assay type: functional, cell-based, Homo sapiens; settings: Homo sapiens, NCI-H2126;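 also: growth inhibition of the cancer cell line, determined with a cell viability readout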
Description: SANGER: Inhibition of human NCI-H2126 cell growth in a cell viability assay.

HT = assay type: functional, cell-based, Homo sapiens; settings: Homo sapiens, HT
Description: SANGER: Inhibition of human HT cell growth in a cell viability assay.

LS-123 = assay type: functional, cell-based, Homo sapiens; settings: Homo sapiens, LS-123
Description: SANGER: Inhibition of human LS-123 cell growth in a cell viability assay.

OCI-AML2 = assay type: functional, cell-based, Homo sapiens; settings: Homo sapiens, OCI-AML2;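 also: growth inhibition of OCI-AML2 cells, read out with a cell viability assay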
Description: SANGER: Inhibition of human OCI-AML2 cell growth in a cell viability assay.

IST-MEL1 = assay type: functional, cell-based, Homo sapiens; settings: Homo sapiens, IST-MEL1;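 also: growth inhibition of the cell line, read out with a cell viability assay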
Description: SANGER: Inhibition of human IST-MEL1 cell growth in a cell viability assay.

ES4 = assay type: functional, cell-based, Homo sapiens; settings: Homo sapiens, ES4;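 also: growth inhibition of human ES4 cells, read out by a cell viability assay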
Description: SANGER: Inhibition of human ES4 cell growth in a cell viability assay.

DEL = assay type: functional, cell-based, Homo sapiens; settings: Homo sapiens, DEL;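 also: growth inhibition of the human DEL cell line, read out with a cell viability assay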
Description: SANGER: Inhibition of human DEL cell growth in a cell viability assay.

A3-KAW = assay type: functional, cell-based, Homo sapiens; settings: Homo sapiens, A3-KAW;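 also: growth inhibition of human A3-KAW cells, read out with a cell viability assay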
Description: SANGER: Inhibition of human A3-KAW cell growth in a cell viability assay.

SCC-15 = assay type: functional, cell-based, Homo sapiens; settings: Homo sapiens, SCC-15;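 also: growth inhibition of SCC-15 cells, read out with a cell viability assay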
Description: SANGER: Inhibition of human SCC-15 cell growth in a cell viability assay.

no-10 = assay type: functional, cell-based, Homo sapiens; settings: Homo sapiens;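 also: growth inhibition of no-10 cells, read out with a cell viability assay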
Description: SANGER: Inhibition of human no-10 cell growth in a cell viability assay.

MZ1-PC = assay type: functional, cell-based, Homo sapiens; settings: Homo sapiens, MZ1-PC;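 also: cell viability assay measuring growth inhibition of human MZ1-PC cells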
Description: SANGER: Inhibition of human MZ1-PC cell growth in a cell viability assay.

SW684 = assay type: functional, cell-based, Homo sapiens; settings: Homo sapiens, SW684;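 also: growth inhibition of human SW684 cells, measured by a cell viability assay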
Description: SANGER: Inhibition of human SW684 cell growth in a cell viability assay.

LU-139 = assay type: functional, cell-based, Homo sapiens; settings: Homo sapiens, LU-139
Description: SANGER: Inhibition of human LU-139 cell growth in a cell viability assay.

GAK = assay type: functional, cell-based, Homo sapiens; settings: Homo sapiens, GAK;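 also: cell growth inhibition read out by a cell viability assay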
Description: SANGER: Inhibition of human GAK cell growth in a cell viability assay.

HCC1187 = assay type: functional, cell-based, Homo sapiens; settings: Homo sapiens, HCC1187;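 also: growth inhibition of HCC1187 cells, read out with a cell viability assay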
Description: SANGER: Inhibition of human HCC1187 cell growth in a cell viability assay.

COLO-684 = assay type: functional, cell-based, Homo sapiens; settings: Homo sapiens, COLO-684
Description: SANGER: Inhibition of human COLO-684 cell growth in a cell viability assay.

TK-10 = assay type: functional, cell-based, Homo sapiens; settings: Homo sapiens, TK-10;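 also: growth inhibition of TK-10 cells, read out in a cell viability assay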
Description: SANGER: Inhibition of human TK10 cell growth in a cell viability assay.

OCUB-M = assay type: functional, cell-based; settings: Homo sapiens;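 also: growth inhibition of the cancer cell line, read out through a cell viability assay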
Description: SANGER: Inhibition of human OCUB-M cell growth in a cell viability assay.

K562 = assay type: functional, cell-based, Homo sapiens; settings: Homo sapiens, K562
Description: SANGER: Inhibition of human K-562 cell growth in a cell viability assay.

LAMA-84 = assay type: functional, cell-based, Homo sapiens; settings: Homo sapiens, LAMA-84;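 also: growth inhibition of LAMA-84 cells, read out with a cell viability assay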
Description: SANGER: Inhibition of human LAMA-84 cell growth in a cell viability assay.

TE-1 = assay type: functional, cell-based, Homo sapiens; settings: Homo sapiens, TE-1;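 also: growth inhibition of the human TE-1 cell line, read out with a cell viability assay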
Description: SANGER: Inhibition of human TE-1 cell growth in a cell viability assay.

U-266 = assay type: functional, cell-based, Homo sapiens; settings: Homo sapiens, U-266
Description: SANGER: Inhibition of human U-266 cell growth in a cell viability assay.

RKO = assay type: functional, cell-based, Homo sapiens; settings: Homo sapiens, RKO;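 also: growth inhibition of human RKO cells, read out with a cell viability assay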
Description: SANGER: Inhibition of human RKO cell growth in a cell viability assay.

LB2518-MEL = assay type: functional, cell-based; settings: Homo sapiens;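 also: growth inhibition of human LB2518-MEL cells, measured with a cell viability assay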
Description: SANGER: Inhibition of human LB2518-MEL cell growth in a cell viability assay.

RH-1 = assay type: functional, cell-based, Homo sapiens; settings: Homo sapiens, RH-1;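 also: growth inhibition of human RH-1 cells, read out with a cell viability assay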
Description: SANGER: Inhibition of human RH-1 cell growth in a cell viability assay.

697 = assay type: functional, cell-based, Homo sapiens; settings: Homo sapiens
Description: SANGER: Inhibition of human 697 cell growth in a cell viability assay.

NCI-H1299 = assay type: functional, cell-based; settings: Homo sapiens;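 also: growth inhibition of human NCI-H1299 cells, read out by a cell viability assay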
Description: SANGER: Inhibition of human NCI-H1299 cell growth in a cell viability assay.

HT-144 = assay type: functional, cell-based, Homo sapiens; settings: Homo sapiens, HT-144
Description: SANGER: Inhibition of human HT-144 cell growth in a cell viability assay.

SHP77 = assay type: functional, cell-based, Homo sapiens, SHP-77; settings: Homo sapiens, SHP77;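 also: growth inhibition of human SHP-77 cells measured by a cell viability assay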
Description: SANGER: Inhibition of human SHP-77 cell growth in a cell viability assay.

HOP-62 = assay type: functional, cell-based, Homo sapiens; settings: Homo sapiens, HOP-62;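 also: cell growth inhibition determined with a viability assay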
Description: SANGER: Inhibition of human HOP-62 cell growth in a cell viability assay.

DJM-1 = assay type: functional, cell-based, Homo sapiens; settings: Homo sapiens, DJM-1;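 also: growth inhibition of human DJM-1 cells, read out by a cell viability assay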
Description: SANGER: Inhibition of human DJM-1 cell growth in a cell viability assay.

J-RT3-T3-5 = assay type: functional, cell-based, Homo sapiens; settings: Homo sapiens, J-RT3-T3-5;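 also: cell viability assay measuring growth inhibition of human J-RT3-T3-5 cells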
Description: SANGER: Inhibition of human J-RT3-T3-5 cell growth in a cell viability assay.

GI-1 = assay type: functional, cell-based, Homo sapiens; settings: Homo sapiens, GI-1;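 also: growth inhibition of human GI-1 cells, measured with a cell viability readout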
Description: SANGER: Inhibition of human GI-1 cell growth in a cell viability assay.

RPMI-8866 = assay type: functional, cell-based, Homo sapiens; settings: Homo sapiens, RPMI-8866
Description: SANGER: Inhibition of human RPMI-8866 cell growth in a cell viability assay.

Measured: IC50

O=S(=O)(O)c1ccc2cc(/N=N/c3cc(S(=O)(=O)O)c4cccnc4c3O)ccc2c1
9.45 µM: SK-LMS-1
> 16 µM: LB2241-RCC | CAS-1 | OMC-1 | SW 962 | EOL1 | BT-474 | ES1 | SF-126 | L-363 | MOLT-4 | SH-4 | MMAC-SF | SK-MEL-2 | A704 | SK-PN-DW | LB771-HNC | NCI-H2126 | HT | LS-123 | OCI-AML2 | IST-MEL1 | ES4 | DEL | A3-KAW | SCC-15 | no-10 | MZ1-PC | SW684; read-out: IC50 | LU-139 | GAK | HCC1187 | COLO-684 | TK-10 | OCUB-M | K562 | LAMA-84 | TE-1 | U-266 | RKO | LB2518-MEL | RH-1 | 697 | NCI-H1299 | HT-144 | SHP77 | HOP-62 | DJM-1 | J-RT3-T3-5 | GI-1 | RPMI-8866

OC[C@H](Cc1ccccc1)Nc1nc(Oc2ccc3c(c2)CCC3)nc2c1ncn2Cc1ccc(-c2ccccc2)cc1
1.38 µM: ES1
3.32 µM: 697
7.38 µM: A3-KAW
8.52 µM: SW684; read-out: IC50
5.77 µM: OCI-AML2
2.94 µM: SK-LMS-1
3.25 µM: LB771-HNC
3.68 µM: OCUB-M
3.45 µM: HOP-62
1.88 µM: EOL1
7.9 µM: GI-1
6.97 µM: MZ1-PC
3.37 µM: RKO
> 10.2 µM: LB2241-RCC | CAS-1 | OMC-1 | SW 962 | BT-474 | SF-126 | MOLT-4 | SH-4 | MMAC-SF | SK-MEL-2 | A704 | NCI-H2126 | HT | IST-MEL1 | DEL | SCC-15 | no-10 | LU-139 | GAK | HCC1187 | COLO-684 | TK-10 | K562 | LAMA-84 | TE-1 | U-266 | LB2518-MEL | NCI-H1299 | SHP77 | DJM-1 | J-RT3-T3-5 | RPMI-8866
6.66 µM: L-363
8.51 µM: ES4
9.49 µM: LS-123
5.29 µM: RH-1
8.54 µM: HT-144
5.48 µM: SK-PN-DW
